≈ marks a conversion by molar mass, not a printed value. One block for each compound: values may come before it.
Legend:
Type in all cases: functional
Pseudomonas aeruginosa [1] = assay: Antibacterial activity against Pseudomonas aeruginosa assessed as bacterial growth inhibition incubated for 24 hrs by serial dilution method
Staphylococcus aureus [2] = assay: Antibacterial activity against Staphylococcus aureus assessed as bacterial growth inhibition incubated for 24 hrs by serial dilution method
Escherichia coli [3] = assay: Antibacterial activity against Escherichia coli assessed as bacterial growth inhibition incubated for 24 hrs by serial dilution method
Bacillus subtilis [4] = assay: Antibacterial activity against Bacillus subtilis assessed as bacterial growth inhibition incubated for 24 hrs by serial dilution method
Salmonella enterica = assay: Antibacterial activity against Salmonella enterica assessed as bacterial growth inhibition incubated for 24 hrs by serial dilution method
Pseudomonas aeruginosa [5] = assay: Potency index, ratio of Penicillin MIC to test compound MIC for antibacterial activity against Pseudomonas aeruginosa assessed as bacterial growth inhibition by broth dilution method
Klebsiella pneumoniae [6] = assay: Antibacterial activity against Klebsiella pneumoniae assessed as bacterial growth inhibition by broth dilution method
Pseudomonas aeruginosa [7] = assay: Antibacterial activity against Pseudomonas aeruginosa assessed as bacterial growth inhibition by broth dilution method
Klebsiella pneumoniae [8] = assay: Potency index, ratio of Penicillin MIC to test compound MIC for antibacterial activity against Klebsiella pneumoniae assessed as bacterial growth inhibition by broth dilution method
Klebsiella pneumoniae [9] = assay: Antibacterial activity against Klebsiella pneumoniae NCDC 138 assessed as bacterial growth inhibition incubated for 24 hrs by serial dilution method
Escherichia coli [10] = assay: Antibacterial activity against Escherichia coli MTCC 443 assessed as bacterial growth inhibition incubated for 24 hrs by serial dilution method
Staphylococcus aureus [11] = assay: Antibacterial activity against Staphylococcus aureus C-18 clinical isolate assessed as bacterial growth inhibition incubated for 1 to 2 days by serial dilution method; conditions: time 1-2 day
Staphylococcus aureus [12] = assay: Antibacterial activity against Staphylococcus aureus 209p ATCC 6538P assessed as bacterial growth inhibition incubated for 1 to 2 days by serial dilution method; conditions: time 1-2 day
Staphylococcus aureus [13] = assay: Antibacterial activity against Staphylococcus aureus Viotko assessed as bacterial growth inhibition incubated for 1 to 2 days by serial dilution method; conditions: time 1-2 day
Staphylococcus aureus [14] = assay: Antibacterial activity against Staphylococcus aureus ATCC 29213 assessed as bacterial growth inhibition incubated for 16 to 20 hrs by CLSI based broth microdilution method; conditions: time 16-20 hrs
Pseudomonas aeruginosa [15] = assay: Antibacterial activity against Pseudomonas aeruginosa ATCC 27853 assessed as bacterial growth inhibition incubated for 16 to 20 hrs by CLSI based broth microdilution method; conditions: time 16-20 hrs
Staphylococcus aureus [16] = assay: Antibacterial activity against Staphylococcus aureus ATCC 25923 assessed as bacterial growth inhibition incubated for 18 to 20 hrs by broth microdilution method; conditions: time 18-20 hrs
Escherichia coli [17] = assay: Antibacterial activity against Escherichia coli ATCC 25922 assessed as bacterial growth inhibition incubated for 16 to 20 hrs by CLSI based broth microdilution method; conditions: time 16-20 hrs
Escherichia coli [18] = assay: Potency index, ratio of Ciprofloxacin MIC to test compound MIC for antibacterial activity against Escherichia coli MTCC 1687 assessed as bacterial growth inhibition by serial dilution method
Escherichia coli [19] = assay: Antibacterial activity against Escherichia coli MTCC 1687 assessed as bacterial growth inhibition by serial dilution method
Pseudomonas aeruginosa [20] = assay: Potency index, ratio of Ciprofloxacin MIC to test compound MIC for antibacterial activity against Pseudomonas aeruginosa assessed as bacterial growth inhibition by serial dilution method
Staphylococcus aureus [21] = assay: Antibacterial activity against Staphylococcus aureus MTCC 737 assessed as bacterial growth inhibition by serial dilution method
Staphylococcus aureus [22] = assay: Potency index, ratio of Ciprofloxacin MIC to test compound MIC for antibacterial activity against Staphylococcus aureus MTCC 737 assessed as bacterial growth inhibition by serial dilution method
Pseudomonas aeruginosa [23] = assay: Antibacterial activity against Pseudomonas aeruginosa assessed as bacterial growth inhibition by serial dilution method
Bacillus subtilis [24] = assay: Antibacterial activity against Bacillus subtilis assessed as bacterial growth inhibition by agar well diffusion method
Escherichia coli [25] = assay: Antibacterial activity against Escherichia coli assessed as bacterial growth inhibition by agar well diffusion method
Staphylococcus aureus [26] = assay: Antibacterial activity against Staphylococcus aureus assessed as bacterial growth inhibition by agar well diffusion method
Pseudomonas aeruginosa [27] = assay: Antibacterial activity against Pseudomonas aeruginosa assessed as bacterial growth inhibition by agar well diffusion method
Staphylococcus aureus [28] = assay: Antibacterial activity against Staphylococcus aureus assessed as bacterial growth inhibition
Bacillus subtilis [29] = assay: Antibacterial activity against Bacillus subtilis assessed as bacterial growth inhibition incubated for 18 to 20 hrs by broth microdilution method; conditions: time 18-20 hrs
Escherichia coli [30] = assay: Antibacterial activity against Escherichia coli JM109 assessed as bacterial growth inhibition incubated for 18 to 20 hrs by broth microdilution method; conditions: time 18-20 hrs
[31] = system: Staphylococcus epidermidis; assay: Antibacterial activity against Staphylococcus epidermidis assessed as bacterial growth inhibition by broth dilution method
Staphylococcus aureus [32] = assay: Antibacterial activity against Staphylococcus aureus assessed as bacterial growth inhibition by broth dilution method
Bacillus subtilis [33] = assay: Antibacterial activity against Bacillus subtilis assessed as bacterial growth inhibition
Escherichia coli [34] = assay: Antibacterial activity against Escherichia coli assessed as bacterial growth inhibition

SMILES: CC(C)C[C@H](NC(=O)OC(C)(C)C)C(=O)OCc1cn(Cc2ccc(F)cc2)nn1
MIC (Pseudomonas aeruginosa [1]): 3.12 µg/mL (≈ 7.42 µM)
MIC (Staphylococcus aureus [2]): 3.12 µg/mL (≈ 7.42 µM)
MIC (Escherichia coli [3]): 3.12 µg/mL (≈ 7.42 µM)
MIC (Bacillus subtilis [4]): 3.12 µg/mL (≈ 7.42 µM)
MIC (Salmonella enterica): 3.12 µg/mL (≈ 7.42 µM)

SMILES: CC1(C)O[C@@H]2[C@@H](CC[C@]3(COC(C)(C)O3)[C@H]2OCc2cn(-c3c(Cl)cc(Cl)cc3Cl)nn2)O1
Ratio (Pseudomonas aeruginosa [5]): 16
MIC (Klebsiella pneumoniae [6]): 9.37 µg/mL (≈ 18.1 µM)
MIC (Pseudomonas aeruginosa [7]): 1.17 µg/mL (≈ 2.26 µM)
Ratio (Klebsiella pneumoniae [8]): 4

SMILES: CC(=O)OC[C@@H]1O[C@H](n2cc(CNC(=O)c3ccc(-c4ccc(Br)cc4)o3)nn2)[C@@H](OC(C)=O)[C@H](OC(C)=O)[C@H]1OC(C)=O
MIC (Staphylococcus aureus [14]): > 250 µg/mL
MIC (Pseudomonas aeruginosa [15]): > 250 µg/mL
MIC (Staphylococcus aureus [16]): > 250 µg/mL
MIC (Escherichia coli [17]): > 250 µg/mL

SMILES: CN[C@@H]1[C@H](O[C@H]2[C@H](O[C@H]3[C@H](O)[C@@H](O)[C@H](N=C(N)N)[C@@H](O)[C@@H]3N=C(N)N)O[C@@H](C)[C@]2(O)C=O)O[C@@H](CO)[C@H](O)[C@H]1O [STREPTOMYCIN]
MIC (Staphylococcus aureus [28]): 6.25 µg/mL (≈ 10.7 µM)
MIC (Bacillus subtilis [29]): 2 µg/mL (≈ 3.44 µM)
MIC (Staphylococcus aureus [12]): 1.89 µg/mL (≈ 3.25 µM)
MIC (Escherichia coli [30]): 1 µg/mL (≈ 1.72 µM)
MIC [31]: 4.68 µg/mL (≈ 8.05 µM)
MIC (Staphylococcus aureus [32]): 9.36 µg/mL (≈ 16.1 µM)
MIC (Bacillus subtilis [33]): 6.25 µg/mL (≈ 10.7 µM)
MIC (Escherichia coli [34]): 6.25 µg/mL (≈ 10.7 µM)

More lines, main results first:

MIC (Klebsiella pneumoniae [9]): 12.5 µg/mL (≈ 29.7 µM)
MIC (Escherichia coli [10]): 25 µg/mL (≈ 59.3 µM)
SMILES: CC(C)(NS(=O)(=O)c1ccccc1)c1cn(-c2ccc(Br)cc2)nn1

MIC (Staphylococcus aureus [11]): 0.65 µg/mL (≈ 1.6 µM)
MIC (Staphylococcus aureus [12]): 0.16 µg/mL (≈ 0.394 µM)
MIC (Staphylococcus aureus [13]): 3.75 µg/mL (≈ 9.23 µM)
SMILES: O=C(O)c1ccc(-n2cc(CNC(=O)c3cc4ccc(=O)oc4cc3O)nn2)cc1

MIC (Escherichia coli [19]): 6.25 µg/mL (≈ 16.4 µM)
MIC (Staphylococcus aureus [21]): 6.25 µg/mL (≈ 16.4 µM)
MIC (Pseudomonas aeruginosa [23]): 6.25 µg/mL (≈ 16.4 µM)
SMILES: COc1cccc2cc(C(=O)c3cn(-c4ccc(Cl)cc4)nn3)c(=O)oc12
Ratio (Escherichia coli [18]): 2
Ratio (Pseudomonas aeruginosa [20]): 2
Ratio (Staphylococcus aureus [22]): 2

MIC (Bacillus subtilis [24]): 0.5 µg/mL (≈ 0.9 µM)
MIC (Escherichia coli [25]): 0.5 µg/mL (≈ 0.9 µM)
MIC (Staphylococcus aureus [26]): 0.5 µg/mL (≈ 0.9 µM)
MIC (Pseudomonas aeruginosa [27]): 0.5 µg/mL (≈ 0.9 µM)
SMILES: COc1ccc(-c2cc(-c3cccs3)nc(OCc3cn(CC(=O)Nc4ccc(C(C)=O)cc4)nn3)c2O)cc1
